From paper PMC7256776, “Pharmacokinetic Comparisons of Eight Active Components from Raw Farfarae Flos and Honey-Processed Farfarae Flos after Oral Administration in Rats by UHPLC-MS/MS Approaches” (Journal of Analytical Methods in Chemistry, 2020)
Like-named read-outs stand apart in the source and are kept apart here.

What was measured:
[1] = Pharmacokinetic study in rats after oral administration of R-FF or H-FF extract (UHPLC-MS/MS of serum); assay type: in vivo, SD rats; settings: for eliminate rate (judged from t1/2 and MRT values): R-FF group; for AUC(0-inf) / AUC(0-t) / Cmax / Tmax / half-life / MRT last: male, SD, rat, serum, po, 140 g/kg, mean ± SD; for AUC(0-inf) / AUC(0-t) / Cmax / Tmax / half-life: n = 6; for MRT last: n = 6, read-out: MRT0–t; for change of T1/2 in H-FF group compared to R-FF group: oral, H-FF vs R-FF
Experimental: MS analysis was performed on a TSQ Quantis™ triple quadrupole mass spectrometer (Thermo Scientific™, Vanquish™, (Waltham, MA, USA)) equipped with an autosampler. Chromatographic separation was performed on a Thermo Hypersil GOLD C18 column (100 mm × 2.1 mm, 1.9 µm particles). The column temperature was maintained at 30°C. Through the Thermo Scientific™, TraceFinder™ software was acquired and processed. The mobile phase was composed of acetonitrile (A) and water (both containing 0.3% formic acid) (B) with a gradient elution program (0–5 min:10–19% acetonitrile, 5–8 min:19–25% acetonitrile, 8–28 min:25%–100% acetonitrile, 28–32 min: 100%–10%, and 32–34 min: 10%–10%). The system was re-equilibrated in the initial mobile phase 4.0 min before the next injection. The flow rate was set at 0.3 mL/min, and the injection volume was set as 2 μL.
The analytes were detected on a TSQ Quantis triple quadrupole mass spectrometer by selected reaction monitoring (SRM) equipped with a heated electrospray ionization source operated in negative ion modes. The parameters were set as follows: the sheath gas and the aux gas were set at 30 Arb and 10 Arb, respectively; the ion transfer tube temperature was maintained at 325°C; and the vaporizer temperature was set to 350°C.
5 μL of IS solution containing chloramphenicol 100 ng/ml and 795 μL of acetonitrile were added to a 100 μL drug serum sample for sedimentation of proteins. Subsequently, the 1.5 mL centrifuge tube containing mixture was vortexed for 5 min. After that, the mixture was centrifuged at 12,000 rpm for 20 min at 4°C. Finally, the supernatant fluid was removed and evaporated to dryness under a stream of nitrogen at 35°C. The dried residue was redissolved by 100 μL 50% methanol aqueous solution. And the supernatant prepared above was filtered through 0.22 μm membranes transferred to vials by the UHPLC-MS/MS system for data analysis.
12 adult male SD rats (weighing 250∼300 g) were used in pharmacokinetics experiments and randomly assigned to two groups: R-FF group and H-FF group. Before being administered R-FF or H-FF extract, all the rats fasted but with free access to water for 12 h. The R-FF or H-FF extract was orally administered to the rats (140 g/kg body weight). Aliquots of 0.3 ml blood samples were collected in 1.5 ml heparin lithium-anticoagulant tubes at (0.083, 0.166, 0.333, 0.5, 1, 2, 4, 6, 8, 12, 24, 36, and 48 h) via the postorbital venous plexus veins from each rat after oral administration. The blood sample was immediately centrifuged at 3500 rpm for 5 min, and the supernatant 100 μL serum was transferred into a new centrifuge tube and stored at −80°C until analysis.

[2] = assay type: in vitro ADME; settings: rat plasma, IS 100 ng/mL, n = 3
Experimental: Short-term stability was calculated by keeping the QC samples at room temperature for 4 hours. Long-term stability was investigated by storing the same QC samples at −20°C in a refrigerator for 30 days. The freeze and thaw stability was determined by analyzing the same QC samples after 3 consecutive freeze-thaw (−20 to 20°C) cycles. The postpreparative stability was evaluated by keeping the QC samples at autosampler for 24 hours.

Row | SMILES | eliminate rate (judged from t1/2 and MRT values) [1] | double peak phenomena in serum concentration-time curve ([1]; both R-FF and H-FF, Figure 3) | AUC(0-inf) ([1]; oral H-FF extract 140 g/kg) [µg·h/mL] | AUC(0-t) ([1]; oral H-FF extract 140 g/kg) [µg·h/mL] | Cmax ([1]; oral H-FF extract 140 g/kg) [µg/mL] | Tmax ([1]; oral H-FF extract 140 g/kg) [h] | half-life ([1]; oral H-FF extract 140 g/kg) [h] | MRT last ([1]; oral H-FF extract 140 g/kg) [h] | AUC(0-inf) ([1]; oral R-FF extract 140 g/kg) [µg·h/mL] | AUC(0-t) ([1]; oral R-FF extract 140 g/kg) [µg·h/mL] | Cmax ([1]; oral R-FF extract 140 g/kg) [µg/mL] | Tmax ([1]; oral R-FF extract 140 g/kg) [h] | half-life ([1]; oral R-FF extract 140 g/kg) [h] | MRT last ([1]; oral R-FF extract 140 g/kg) [h] | Freeze-thaw stability (RE%) ([2]; 3 freeze-thaw cycles (−20 to 20°C)) [%] | Short-term stability (RE%) ([2]; room temperature 4 hours) [%] | Long-term stability (RE%) ([2]; −20°C 30 days) [%] | change of T1/2 in H-FF group compared to R-FF group [1]
1 | O=C(O)/C=C/c1ccc(O)c(O)c1 [Caffeic acid, caffeic acid] | slow eliminate rate | obvious double peak phenomena | 66.8 ± 12.2 | 24.1 ± 2.06 | 4.55 ± 0.235 | 0.33 | 78.9 ± 26 | 12.7 ± 0.38 | 35.2 ± 9.99 | 20.2 ± 0.405 | 4.47 ± 0.311 | 0.33 | 32.3 ± 17.6 | 14.3 ± 0.25 | – | – | – | –
2 | O=C(N[C@H](CO)[C@H](O)c1ccc([N+](=O)[O-])cc1)C(Cl)Cl [Chloramphenicol (IS), chloramphenicol] | – | – | – | – | – | – | – | – | – | – | – | – | – | – | −4.77 | 0.74 | −2.22 | –
3 | O=C(/C=C/c1ccc(O)c(O)c1)O[C@@H]1C[C@](O)(C(=O)O)C[C@@H](O)[C@H]1O [Chlorogenic acid, chlorogenic acid] | slow eliminate rate | – | 428 ± 41.6 | 281 ± 10.8 | 80.4 ± 6.35 | 0.33 | 32.9 ± 4.87 | 11.1 ± 0.16 | 236 ± 75.6 | 167 ± 21.8 | 75.6 ± 3.06 | 0.33 | 33.4 ± 3.36 | 10.6 ± 0.82 | – | – | – | a little shorter
4 | O=C(/C=C/c1ccc(O)c(O)c1)O[C@H]1[C@H](O)C[C@](O)(C(=O)O)C[C@H]1O [Cryptochlorogenic acid, cryptochlorogenic acid] | slow eliminate rate | – | 401 ± 22 | 351 ± 16.7 | 97.3 ± 1.15 | 0.33 | 17.6 ± 1.57 | 13.2 ± 0.39 | 242 ± 49.1 | 170 ± 5.98 | 67.8 ± 3.1 | 0.33 | 21.9 ± 9.25 | 11.2 ± 0.53 | – | – | – | a little shorter
